Test results published in PMC8431370, “The Second-Generation PIM Kinase Inhibitor TP-3654 Resensitizes ABCG2-Overexpressing Multidrug-Resistant Cancer Cells to Cytotoxic Anticancer Drugs” (International Journal of Molecular Sciences, 2021).

Key:
[1] = target: T1, ATP-binding cassette (ABC) subfamily G member 2 (ABCG2) (Homo sapiens, UniProt Q9UNQ0); experiment: flow cytometry inhibition of pheophorbide A efflux in ABCG2-transfected HEK293 cells (also S1-M1-80 and H460-MX20); type: cell-based
T1 construct: ABCG2-transfected R482-HEK293 cells
T1 sequence (Q9UNQ0 1-655): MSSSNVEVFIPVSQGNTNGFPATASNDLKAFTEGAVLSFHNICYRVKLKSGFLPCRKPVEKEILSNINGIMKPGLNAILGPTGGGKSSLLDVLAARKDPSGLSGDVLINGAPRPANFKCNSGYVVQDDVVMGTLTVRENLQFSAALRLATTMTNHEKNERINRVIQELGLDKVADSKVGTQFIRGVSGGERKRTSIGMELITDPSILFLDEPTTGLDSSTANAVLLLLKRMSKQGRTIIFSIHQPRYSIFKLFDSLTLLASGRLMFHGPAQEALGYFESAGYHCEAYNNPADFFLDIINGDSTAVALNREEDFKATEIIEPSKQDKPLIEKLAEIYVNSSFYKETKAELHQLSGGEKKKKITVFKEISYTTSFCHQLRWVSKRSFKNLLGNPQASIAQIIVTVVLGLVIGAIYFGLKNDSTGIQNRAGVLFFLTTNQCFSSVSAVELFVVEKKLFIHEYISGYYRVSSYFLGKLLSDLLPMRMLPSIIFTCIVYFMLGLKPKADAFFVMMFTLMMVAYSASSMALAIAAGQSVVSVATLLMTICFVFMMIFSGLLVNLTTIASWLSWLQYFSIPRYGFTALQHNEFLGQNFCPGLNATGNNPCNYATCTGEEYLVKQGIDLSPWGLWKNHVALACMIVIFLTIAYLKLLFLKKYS
Excerpt: flow cytometry inhibition of pheophorbide A efflux in ABCG2-transfected HEK293 cells (also S1-M1-80 and H460-MX20) on ATP-binding cassette (ABC) subfamily G member 2 (ABCG2) | TP-3654 inhibited ABCG2-mediated efflux of PhA in ABCG2-transfected R482-HEK293 cells

[2] = target: T1, ATP-binding cassette (ABC) subfamily G member 2 (ABCG2); experiment: flow cytometry of ABCG2-mediated efflux in parental and ABCG2-transfected HEK293 cells; type: cell-based

| IC50 [1] | SMILES | flow cytometry of ABCG2-mediated efflux in parental and ABCG2-transfected HEK293 [2] |
| --- | --- | --- |
| ~0.14 µM | CC(C)(O)[C@H]1CC[C@H](Nc2ccc3ncc(-c4cccc(C(F)(F)F)c4)n3n2)CC1 [TP-3654] | – |
| – | C=Cc1c(C)c2cc3nc(c4c5[nH]c(cc6nc(cc1[nH]2)C(C)=C6CC)c(C)c5C(=O)[C@@H]4C(=O)OC)[C@@H](CCC(=O)O)[C@@H]3C [pheophorbide A] | Flow cytometry analysis of PhA accumulation in parental HEK293 cells and ABCG2-transfected R482-HEK293 cells |
